In ChEMBL document CHEMBL1649088, “Structural optimization of azadipeptide nitriles strongly increases association rates and allows the development of selective cathepsin inhibitors” (J Med Chem, 2011):
Active and inactive are the calls of the source. The rule behind the calls is not given here.

Assays:
Cathepsin B = Cathepsin B (Homo sapiens, UniProt P07858); assay: Inhibition of human recombinant cathepsin B after 30 mins by spectrophotometric assay
Procathepsin L = Procathepsin L (Homo sapiens, UniProt P07711); assay: Inhibition of human recombinant cathepsin L after 30 mins by spectrophotometric assay
Cathepsin K = target: T1, Cathepsin K (Homo sapiens, UniProt P43235); assay: Inhibition of human recombinant cathepsin K after 30 mins by spectrophotometric assay
T1 sequence (P43235 whole entry): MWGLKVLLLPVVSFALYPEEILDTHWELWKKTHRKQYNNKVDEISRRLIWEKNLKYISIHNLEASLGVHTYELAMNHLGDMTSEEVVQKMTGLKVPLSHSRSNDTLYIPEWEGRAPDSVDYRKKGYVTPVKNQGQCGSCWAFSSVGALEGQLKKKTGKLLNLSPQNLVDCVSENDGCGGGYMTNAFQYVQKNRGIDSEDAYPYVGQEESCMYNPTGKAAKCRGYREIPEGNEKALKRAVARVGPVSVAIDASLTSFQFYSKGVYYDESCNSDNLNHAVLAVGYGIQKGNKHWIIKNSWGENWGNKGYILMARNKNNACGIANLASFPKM

Cathepsin S = Cathepsin S (Homo sapiens, UniProt P25774); assay: Inhibition of human cathepsin S after 30 mins by spectrophotometric assay
Homo sapiens [1] = organism: Homo sapiens; assay: Selectivity ratio, ratio of Ki for human recombinant cathepsin L to Ki for human recombinant cathepsin K
[2] = target: T2, Cathepsin K (Homo sapiens) (UniProt P43235); assay: Reversible inhibition of human recombinant cathepsin K at 300 nM preincubated for 30 mins by spectrophotometric assay
T2 sequence (whole entry): T1 sequence (P43235 whole entry)

Homo sapiens [3] = organism: Homo sapiens; assay: Selectivity ratio, ratio of Ki for human cathepsin S to Ki for human recombinant cathepsin K
Homo sapiens [4] = organism: Homo sapiens; assay: Selectivity ratio, ratio of Ki for human recombinant cathepsin B to Ki for human recombinant cathepsin K

Procathepsin L, sequence (P07711 whole entry): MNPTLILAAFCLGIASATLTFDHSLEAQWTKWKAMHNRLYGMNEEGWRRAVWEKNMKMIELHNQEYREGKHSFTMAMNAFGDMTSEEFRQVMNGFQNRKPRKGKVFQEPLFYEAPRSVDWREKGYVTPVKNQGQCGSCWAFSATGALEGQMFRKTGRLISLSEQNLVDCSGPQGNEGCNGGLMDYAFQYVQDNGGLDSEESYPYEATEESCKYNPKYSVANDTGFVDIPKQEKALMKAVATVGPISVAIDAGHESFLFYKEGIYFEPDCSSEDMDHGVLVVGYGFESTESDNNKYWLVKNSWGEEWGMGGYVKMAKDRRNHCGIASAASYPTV
Cathepsin S, sequence (P25774 whole entry): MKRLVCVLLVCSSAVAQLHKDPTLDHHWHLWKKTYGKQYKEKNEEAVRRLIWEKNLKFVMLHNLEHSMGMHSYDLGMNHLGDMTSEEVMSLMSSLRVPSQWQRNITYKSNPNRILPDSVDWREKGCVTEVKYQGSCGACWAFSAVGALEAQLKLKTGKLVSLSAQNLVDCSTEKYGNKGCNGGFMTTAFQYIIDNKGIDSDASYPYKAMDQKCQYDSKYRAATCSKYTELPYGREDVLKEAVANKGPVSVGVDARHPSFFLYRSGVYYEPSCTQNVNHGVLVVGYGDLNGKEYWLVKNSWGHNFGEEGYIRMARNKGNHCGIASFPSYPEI

Row | Ki (Cathepsin B) | Ki (Procathepsin L) | Ki (Cathepsin K) | Ki (Cathepsin S) | Ratio Ki (Homo sapiens [1]) | Activity [2] | Ratio Ki (Homo sapiens [3]) | Ratio Ki (Homo sapiens [4]) | SMILES
1 | 0.43 nM | 0.9 nM | 0.064 nM | 0.33 nM | – | – | – | – | CC(C)C[C@H](NC(=O)OCc1ccccc1)C(=O)N(C)N(C)C#N
2 | 0.38 nM | 0.36 nM | 0.16 nM | 0.86 nM | – | – | – | – | CN(C#N)N(C)C(=O)[C@H](Cc1ccc(O)cc1)NC(=O)OCc1ccccc1
3 | 2.4 nM | 2 nM | 0.045 nM | 0.19 nM | – | – | – | – | Cc1nc(-c2ccc(NC(=O)N[C@@H](CC(C)C)C(=O)N(C)N(C)C#N)cc2)no1
4 | > 22000 nM | 4700 nM | 34 nM | 180 nM | – | – | – | – | CC(C)C[C@H](NC(=O)Nc1ccc(-c2noc(-c3cccs3)n2)cc1)C(=O)NCC#N
5 | 2.4 nM | 4.4 nM | 0.022 nM | 0.32 nM | – | – | – | – | CC(C)C[C@H](NC(=O)Nc1ccc(-c2noc(-c3cccs3)n2)cc1)C(=O)N(C)N(C)C#N
6 | > 22000 nM | 940 nM | 2.9 nM | 140 nM | 300 | – | – | – | CC(C)C[C@H](NC(=O)c1ccc(-c2noc(-c3cccs3)n2)cc1)C(=O)NCC#N
7 | 0.36 nM | 0.22 nM | 0.032 nM | 0.15 nM | – | – | – | – | CC(C)C[C@H](NC(=O)c1ccc(-c2noc(-c3cccs3)n2)cc1)C(=O)N(C)N(C)C#N
8 | 55 nM | 480 nM | 33 nM | 9.1 nM | – | – | – | – | C[C@H](NC(=O)OCc1ccccc1)C(=O)N(C)N(C)C#N
9 | 0.65 nM | 0.39 nM | 0.011 nM | 0.2 nM | – | – | – | – | CC(C)C[C@H](NC(=O)NCc1ccccc1)C(=O)N(C)N(C)C#N
10 | 510 nM | 2700 nM | 0.63 nM | 140 nM | 4300 | Active | 200 | 800 | CC(C)C[C@@H](C(=O)N(C)N(C)C#N)N(C)C(=O)c1ccc(-c2noc(-c3cccs3)n2)cc1
11 | 0.88 nM | 2.6 nM | 0.46 nM | 0.83 nM | – | – | – | – | CC[C@H](C)[C@H](NC(=O)OCc1ccccc1)C(=O)N(C)N(C)C#N
12 | 2.8 nM | 1.4 nM | 0.11 nM | 0.17 nM | – | – | – | – | Cc1nc(-c2ccc(CNC(=O)N[C@@H](CC(C)C)C(=O)N(C)N(C)C#N)cc2)no1
13 | 4.3 nM | 1.5 nM | 0.87 nM | 1.5 nM | – | – | – | – | CC(C)[C@H](NC(=O)OCc1ccccc1)C(=O)N(C)N(C)C#N
14 | 840 nM | 860 nM | 260 nM | 800 nM | – | – | – | – | CN(C#N)N(C)C(=O)CNC(=O)OCc1ccccc1
15 | 1.3 nM | 1.1 nM | 0.072 nM | 0.16 nM | – | – | – | – | CC(C)C[C@H](NC(=O)NCc1ccc(-c2noc(-c3cccs3)n2)cc1)C(=O)N(C)N(C)C#N
16 | 0.68 nM | 0.16 nM | 0.14 nM | 0.51 nM | – | – | – | – | CN(C#N)N(C)C(=O)[C@H](Cc1ccccc1)NC(=O)OCc1ccccc1
17 | 1.3 nM | 0.045 nM | 0.017 nM | 0.16 nM | – | – | – | – | CC(C)C[C@H](NC(=O)Nc1ccccc1)C(=O)N(C)N(C)C#N
18 | > 22000 nM | > 22000 nM | 270 nM | > 22000 nM | – | – | – | – | CC(C)C[C@@H](C(=O)NCC#N)N(C)C(=O)c1ccc(-c2noc(-c3cccs3)n2)cc1
19 | 0.48 nM | 0.4 nM | 0.071 nM | 0.2 nM | – | – | – | – | CN(C#N)N(C)C(=O)[C@H](CC1CCCCC1)NC(=O)OCc1ccccc1
